Measured values as given in patent publication US4981872A, “Prostaglandin derivatives, their preparation and their therapeutic use” (Sankyo Company Limited, priority 1987, dated 1991).
≈ marks a conversion by molar mass, not a printed value.

Assays:
[1] = tested on: blood platelet aggregation; experiment: Inhibition of blood platelet aggregation in vitro (adenosine diphosphate-induced, Born's method); type: cell-based, Japanese white rabbit; conditions: Oryctolagus cuniculus, rabbit PRP/PPP mixture, ADP 5μM
Procedure: Inhibition of blood platelet aggregation in vitro
One part by volume of blood from a Japanese white rabbit was mixed immediately after removal with one tenth of its volume of a 3.8% w/v aqueous solution of sodium citrate. The mixture was then centrifuged at 95×G for 15 minutes at room temperature to obtain a platelet-rich plasma (PRP) as the upper layer. The remaining blood sample was then centrifuged for a further 15 minutes at 1000×G to obtain a platelet poor plasma (PPP). By mixing appropriate amounts of the PRP and the PPP, the final platelet count of the mixture was adjusted to 6×105 per μ, platelet aggregation was determined by Born's method [G. V. R. Born: J. Physiol. 62, 67-68 (1962)] by increases in transparency of the test liquid using a platelet aggregometer 25 μl of a solution of the test compound were added to 250 μof the mixture of PRP and PPP and then two minutes after mixing the solutions 25 μl of a liquid containing adenosine diphosphate at a concentration of 5μM were added.
The inhibition of platelet aggregation was assessed by comparing the increase in the amount of light transmitted through the test sample treated platelet-rich plasma with a control platelet-rich plasma which had been treated in the same way, except that the test compound was replaced by physiological saline.

[2] = tested on: ethanol-induced gastric ulcers; experiment: Effects on ethanol-induced gastric ulcers (inhibition of gastric mucosal lesions, oral); type: in vivo, male rats of the Sprague-Dawley strain; conditions: p.o., 1 hour before 1 ml absolute ethanol, rat, ID50 of gastric mucosal lesions, read-out: Anti-ulcer activity (ID50, p.o.)
Procedure: Effects on ethanol-induced qastric ulcers
The test animals used were male rats of the Sprague-Dawley strain each having a body weiqht of about 180-200 g, prior to use in this experiment they were starved for about 42 hours. At the end of this time, each animal was orally administered one of the test compounds shown in the following Table 3. in which the compounds are identified by the number of the foregoing Example in which they were prepared. One hour after administration, gastric mucosal lesions were induced by the oral administration of 1 ml of absolute ethanol. One hour after this administration, the animals were sacrificed with dry ice, and their stomachs were removed and fixed with formalin. The area (mm^2) of the mucosal lesions induced on the gastric mucosa by the ethanol was measured by a video image processor and the inhibition of gastric mucosal lesions by each test compound was calculated in terms of the ID50, by comparison with the results achieved from control animals which had been treated as described above, except that no anti ulcer compound was administered and from the results achieved from the test compounds at various levels of administration.
As a control, there was used the following prior art 6-oxo compound (ORNOPROSTIL): [drawing 12]

Row | Structure (SMILES) | IC50 [1] | ED50 [2]
1 | COC(=O)CCC(=O)CCC[C@H]1C(=O)C[C@@H](O)[C@@H]1/C=C/[C@@H](O)COc1ccccc1 [Ex. 30, Methyl 4,9-dioxo-11α,15α-dihydroxy-16-phenoxy17,18,19,20-tetranprprost 13(E)-enoate] | > 10 µg/mL | 3.7 µg/kg
2 | COC(=O)CCCC(=O)CC[C@H]1C(=O)C[C@@H](O)[C@@H]1/C=C/[C@@H](O)COc1ccccc1 [Ex. 1, 5-Oxo-16-phenoxy-17,18,19,20-tetranorprostaglandin E1 methyl ester] | > 10 µg/mL | 2.94 µg/kg
3 | COC(=O)CCCC(=O)CC[C@H]1C(=O)C[C@@H](O)[C@@H]1/C=C/[C@@H](O)COc1ccc(Cl)cc1 [Ex. 11, 5-Oxo-16-p-chlorophenoxy-17,18,19,20-tetranorprostaglandin E1 methyl ester] | > 10 µg/mL | 0.49 µg/kg

The next lines start with results.

Row | IC50 [1] | Structure (SMILES) | ED50 [2]
4 | > 10 µg/mL | CCCCC(C)(C)[C@H](O)/C=C/[C@H]1[C@H](O)CC(=O)[C@@H]1CCCC(=O)CCC(=O)OC [Ex. 31, Methyl 4,9-dioxo-11α,15α-dihydroxy-16,16-dimethylprost 13(E) enoate] | 4.91 µg/kg
5 | 0.0019 µg/mL (≈ 0.00463 µM) | CCCC[C@H](C)C[C@H](O)/C=C/[C@H]1[C@H](O)CC(=O)[C@@H]1CC(=O)CCCCC(=O)OC [Control, reference compound] | 0.2 µg/kg
